Values quoted from earlier work as cited in publication PMC7163368 (British Journal of Clinical Pharmacology, 2020).

Conditions: cited from earlier work

| Compound | Oral bioavailability | other results |
| --- | --- | --- |
| CC#CCn1c(N2CCC[C@@H](N)C2)nc2c1c(=O)n(Cc1nc(C)c3ccccc3n1)c(=O)n2C [linagliptin] |  | Terminal half‐life (currently available oral gliptines): 105 h |
| N#C[C@@H]1C[C@@H]2C[C@@H]2N1C(=O)[C@@H](N)C12CC3CC(CC(O)(C3)C1)C2 [saxagliptin] | 67% |  |
| N[C@@H](CC(=O)N1CCn2c(nnc2C(F)(F)F)C1)Cc1cc(F)c(F)cc1F [sitagliptin] |  | Plasma levels higher in female subjects (female vs male subjects): approximately 25% |
| N#C[C@@H]1CCCN1C(=O)CNC12CC3CC(CC(O)(C3)C1)C2 [vildagliptin] | 85% |  |
